Among the test systems are BT-549 breast; CAKI-1 renal; SF-268 CNS; MCF7 breast; K-562 leukemia; IGROV1 ovarian; LOX IMVI melanoma; RPMI-8226 leukemia; OVCAR-3 ovarian; MDA-MB-435.
Holding throughout (test): NCI-60 cell line screen, 48 h

Each structure is given as a SMILES string.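 How tested: cells in 96-well plates exposed to compound for 48 hours at five concentrations. GI50 = concentration required for 50% inhibition of growth. TGI is the concentration that stops growth completely.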

For six molecules, GI50 and TGI results are on record in PubChem BioAssay (NCI).

Regarding `COC(=O)Nc1nc2ccc(C(=O)C3CC3)cc2[nH]1`, the GI50 in the assay on BT-549 breast is 1.01 µM; in the assay on CAKI-1 renal, 0.305 µM; with SF-268 CNS, 0.573 µM; in the assay on MCF7 breast, 0.331 µM; with K-562 leukemia it was 0.417 µM; with IGROV1 ovarian, 0.29 µM. The GI50 in the assay on LOX IMVI melanoma is 0.72 µM; in the assay on RPMI-8226 leukemia it was 0.219 µM; in the assay with OVCAR-3 ovarian it was 0.207 µM; in the assay with MDA-MB-435, 0.134 µM. In addition, the TGI with BT-549 breast was > 30.7 µM; in the assay with CAKI-1 renal, > 51.6 µM; in the assay on SF-268 CNS, 31.3 µM; in the assay with MCF7 breast, > 56.1 µM; with K-562 leukemia it was > 100 µM; with IGROV1 ovarian it was 18.2 µM. Also, the TGI is > 100 µM with LOX IMVI melanoma, 0.696 µM in the assay with RPMI-8226 leukemia, 0.448 µM in the assay with OVCAR-3 ovarian and 0.324 µM in the assay with MDA-MB-435.

For the molecule `COc1ccc2c(c1)OC(N)=C(C#N)C2c1ccc(F)c(F)c1` (stereo not given), the GI50 with BT-549 breast is 0.598 µM; with CAKI-1 renal, 0.394 µM; with SF-268 CNS, 0.754 µM; with MCF7 breast it was 0.333 µM; in the assay on K-562 leukemia, 0.257 µM; with IGROV1 ovarian, 0.715 µM. Further, the GI50 is 0.589 µM in the assay with LOX IMVI melanoma, 0.455 µM in the assay with RPMI-8226 leukemia, 0.324 µM in the assay on OVCAR-3 ovarian and 0.133 µM with MDA-MB-435. The TGI in the assay on BT-549 breast was 65.6 µM; with CAKI-1 renal it was > 100 µM; in the assay with SF-268 CNS, > 65.4 µM; with MCF7 breast, > 67.8 µM; in the assay on K-562 leukemia it was > 100 µM; in the assay with IGROV1 ovarian it was > 100 µM. Besides, the TGI in the assay on LOX IMVI melanoma is > 100 µM; with RPMI-8226 leukemia, 31.7 µM; in the assay on OVCAR-3 ovarian, 3.4 µM; in the assay on MDA-MB-435, 0.664 µM.

Turning to `O=C(/C=C/c1cccnc1)c1ccccc1`, the GI50 in the assay with BT-549 breast is 16 µM; in the assay with CAKI-1 renal, 7.21 µM; in the assay on SF-268 CNS, 14.4 µM; in the assay on MCF7 breast it was 2.92 µM; in the assay on K-562 leukemia, 2.85 µM; in the assay with IGROV1 ovarian, 4.97 µM. For the same molecule, the GI50 is 1.86 µM with LOX IMVI melanoma, 2.46 µM with RPMI-8226 leukemia, 4.25 µM in the assay with OVCAR-3 ovarian and 12.4 µM in the assay with MDA-MB-435. The TGI amounted to 29.9 µM in the assay on BT-549 breast; 20.6 µM in the assay with CAKI-1 renal; 30 µM with SF-268 CNS; 12.4 µM in the assay on MCF7 breast; 8.53 µM in the assay on K-562 leukemia; 25.6 µM in the assay on IGROV1 ovarian. Also, the TGI in the assay on LOX IMVI melanoma is 3.62 µM; in the assay with RPMI-8226 leukemia, 6.24 µM; with OVCAR-3 ovarian, 15.7 µM; with MDA-MB-435 it was 26.7 µM.

Consider `ClCCN(CCCl)c1ccc(OCc2ccccc2)cc1`, for which the GI50 in the assay with BT-549 breast was 2.5 µM; in the assay on CAKI-1 renal it was 0.709 µM; with SF-268 CNS, 2.07 µM; with MCF7 breast, 3.6 µM; in the assay on K-562 leukemia, 7.02 µM; in the assay on IGROV1 ovarian it was 7.03 µM. For the same molecule, the GI50 in the assay with LOX IMVI melanoma is 3.13 µM; in the assay with RPMI-8226 leukemia, 3.79 µM; with OVCAR-3 ovarian it was 8.54 µM; in the assay with MDA-MB-435 it was 8.16 µM. The TGI is 22.6 µM with BT-549 breast; 66.5 µM with CAKI-1 renal; 22.5 µM in the assay on SF-268 CNS; 35.5 µM with MCF7 breast; > 100 µM in the assay on K-562 leukemia; 64 µM in the assay on IGROV1 ovarian. The TGI in the assay with LOX IMVI melanoma is 17.4 µM; in the assay on RPMI-8226 leukemia, 36.5 µM; with OVCAR-3 ovarian it was 34.8 µM; with MDA-MB-435 it was 32.6 µM.

For `NNC(=S)N/N=C/c1ccccn1`, the GI50 was 4.29 µM in the assay with BT-549 breast; 1.66 µM in the assay with CAKI-1 renal; 1.58 µM in the assay on SF-268 CNS; 2.99 µM in the assay with MCF7 breast; 2.64 µM in the assay with K-562 leukemia; 3.05 µM in the assay with IGROV1 ovarian. In addition, the GI50 was 2.3 µM in the assay on LOX IMVI melanoma, 2.44 µM in the assay on RPMI-8226 leukemia, 3.02 µM in the assay on OVCAR-3 ovarian and 5.2 µM in the assay with MDA-MB-435. Besides, the TGI in the assay with BT-549 breast, in the assay with CAKI-1 renal, in the assay on SF-268 CNS, with MCF7 breast, with K-562 leukemia and in the assay on IGROV1 ovarian was > 100 µM each time. Moreover, the TGI in the assay with LOX IMVI melanoma, with RPMI-8226 leukemia, in the assay with OVCAR-3 ovarian and in the assay on MDA-MB-435 was > 100 µM throughout.

As for `CCOC(=O)Nc1nc(-c2ccccc2)c(C)s1`, the TGI in the assay with BT-549 breast, in the assay on CAKI-1 renal, in the assay on SF-268 CNS, with MCF7 breast, in the assay with K-562 leukemia and in the assay on IGROV1 ovarian was > 100 µM each time. Moreover, the TGI with LOX IMVI melanoma, in the assay on RPMI-8226 leukemia, with OVCAR-3 ovarian and in the assay on MDA-MB-435 was > 100 µM throughout.
